Data set [1] concerns PANC-02 mouse pancreatic cancer cell line. As to the kind of experiment: PRR tolerance: IFN-β production by pretreated PANC-02 cells after secondary treatment. In kind it is cell-based. To be noted: FIG. 8; for IFN-β production, cells pre-treated with mixture of 1-MT and CH223191 versus DMSO: substance given as mixture of IDO inhibitor and AHR inhibitor; for IFN-β production after secondary treatment, cells pretreated with the substance versus control: pretreatment at sublethal dose overnight, then pIC/DF complex 0.6 μg/ml. The method, then: (§1) In addition to prior activation of MDA5, prior activation of TLR4, RIG-I, and STING induced self- and cross-tolerance of same and different PRRs.
(§2) In particular, mouse pancreatic cancer cell line PANC-02 and melanoma cell line B16-F10 were pretreated with dH2O, MDA5 agonist (pIC/DF complex), or TLR4 agonist (HMGB1) in the presence of dimethyl sulfoxide (DMSO) (vehicle control), CH223191 (AHR inhibitor), 1-MT (IDO inhibitor), or L-Kyn (AHR activator). After overnight incubation, the cells were replenished with fresh culture media and treated with pIC/DF complex (0.6 μg/ml). One day after second treatment, IFN-β production was measured using ELISA. (n=3).

Data set [2] deals with B16-F10 melanoma cell line. As to the kind of experiment: PRR tolerance: IFN-β production by pretreated B16-F10 cells after secondary treatment. In kind it is cell-based, mouse. To be noted: FIG. 8; for IFN-β production, cells pre-treated with mixture of 1-MT and CH223191 versus DMSO: substance given as mixture of IDO inhibitor and AHR inhibitor; for IFN-β production after secondary treatment, cells pretreated with the substance versus control: pretreatment at sublethal dose overnight, then pIC/DF complex 0.6 μg/ml. The method, then: as §1, §2

For data set [3], the system named is Mouse macrophage cells. The experiment in a line: PRR tolerance: IFN-β production by pretreated macrophages after secondary treatment. It is filed as cell-based. To be noted: for IFN-β production, cells pre-treated with mixture of 1-MT and CH223191 versus DMSO: substance given as mixture of IDO inhibitor and AHR inhibitor, FIG. 9; for IFN-β production after secondary treatment, cells pretreated with the substance versus control: pretreatment overnight, then cytoplasmic PRR agonists, FIG. 9B. The method, then:
as §1
(§3) Mouse BM-DCs were treated with pIC/DF complex (cytoplasmic MDA5), ICR4/DF complex (cytoplasmic RIG-I), 2′3′-cGAMP (cytoplasmic STING), or transfection agent DF alone (FIG. 9A). Mouse macrophage cells were treated with dH2O (control), LPS (surface TLR4), or HMGB1 (surface TLR4), followed by treatment with DMSO (control) or mixture of CH223191 (AHR inhibitor) and 1-MT (IDO inhibitor) (FIG. 9B). After overnight incubation, the cells were replenished with fresh culture media and treated with indicated cytoplasmic PRR agonists. Levels of IFN-β production were measured using ELISA. □ P<0.05.

Data set [4] concerns Mouse BM-DCs. The experiment in a line: PRR tolerance: IFN-β production by pretreated BM-DCs after secondary treatment. It is filed as cell-based. The note with it: pretreatment overnight, then cytoplasmic PRR agonists; FIG. 9A. The method, then: as §1, §3
Data set [5] deals with B16-F10 mouse melanoma cells. The experiment in a line: IFN-β production (ELISA) by B16-F10 cells. To be noted: for IFN-β production compared to ICR2 and ICR2AS conjugated with seed mutant anti-miR-21: FIG. 6B, n=3. In kind it is cell-based. The method, then: (§4) B16-F0 and B16-F10 mouse melanoma cells lines are originated from the same parental cell line but they have different metastatic ability. B16-F0 cell line has no or marginal metastatic ability but B16-F10 cell line has potent metastatic ability. B16-F0 and B16-F10 cells (1×10^4) were treated with RIG-I agonist ICR4-liposome complex (0.6 μg/ml). After overnight incubation, cytotoxicity and IFN-β production by the cells were measured using MTT assay and ELISA, respectively. […] Tumor suppressor proteins, such as programmed cell death 4 (PDCD4) and phosphatase and tensin homolog (PTEN), and pre-miR-21 levels in B16-F0 and B16-F10 cells were measured using real-time qPCR. […] It was hypothisized that miR-21 would interfere with antitumor effects of RIG-I agonists in B16-F10 melanoma cells.
To improve therapeutic effects of RIG-I agonists in B16-F10 cells, we designed and generated a novel RIG-I-activating RNA molecule (named RigantmiR-21) that is composed of a RIG-I-activating RNA structure (ICR4: 5′ppp-containg double stem-loop RNA) and a complementary sequence to mature miR-21. B16-F10 melanoma cells were transfected once or twice with RigantmiR-21, mutant RigantmiR-21, anti-miR-21, or ICR4 (0.6 μg/ml) using liposomal transfection agent DharmaFECT (DF). The expression of miR-21 target genes was determined using qPCR. IFN-β production was determined using ELISA. […] Anti-miR-21, ICR4, and RigantmiR-21 RNAs were complexed with in vivo transfection agent jet-PEI. Jet-PEI alone or RNA-jet-PEI complexes (25 μg) were injected thrice intratumorally into B16-F10 melanoma-bearing immunocompetent mice. (n=6).
Additionally, conjugation of anti-miR-21 improved the ability of other types of RIG-I agonists, such as ICR2 and ICR2AS^4 (sequences shown in FIG. 6A) to induce IFN-β production by cancer cells.
A general note: An ELISA detects its analyte on a solid surface through an enzyme-linked reagent.

Data set [6] relates to B16-F0 mouse melanoma cells. As to the kind of experiment: Cytotoxicity (MTT assay) in B16-F0 cells. It is filed as cell-based. The note with it: for cytotoxic effects after repeated treatments: two transfections at various concentrations, DharmaFECT, MTT three days after first transfection. The method, then:
as §4
B16-F0 mouse melanoma cells were transfected with ICR4, RigantmiR-21, mutant RigantmiR-21, or anti-miR-21 at various concentrations using DharmaFECT (DF). After overnight incubation, the cells were replenished with fresh culture media, followed by another transfection with the same dose of RNAs. Three days after the first transfection, cytotoxicity levels were measured using MTT assay.
(Tetrazolium assays rely on reduction of a dye to a coloured formazan, in cell work by metabolically active cells.)

The subject of data set [7] is B16-F10 mouse melanoma cells. The experiment in a line: Cytotoxicity (MTT assay) in B16-F10 cells. The note with it: ICR4-liposome complex 0.6 μg/ml, overnight incubation. It is filed as cell-based. The method, then: as §4
Data set [8] concerns B16-F0 mouse melanoma cells. As to the kind of experiment: IFN-β production (ELISA) by B16-F0 cells. In kind it is cell-based. To be noted: ELISA; for IFN-β production after first and second transfection: 12.5 nM, DharmaFECT, one day after first and second transfection. The method, then:
as §4
B16-F0 mouse melanoma cells were transfected with ICR4, RigantmiR-21, mutant RigantmiR-21, or anti-miR-21 at 12.5 nM using DharmaFECT (DF). After overnight incubation, the cells were replenished with fresh culture media, followed by another transfection with the same dose of RNAs. One day after the first and second transfection, IFN-β production by these cells were determined using ELSIA.
B16-F0 mouse melanoma cells or bone marrow-derived dendritic cells (BM-DCs) were transfected once (x1) or twice (x2) with a complex of polyI:C (pIC) (0.6 μg/ml) and transfection agent jet-PEI. IFN-β production by the cells one day after each transfection was determined using ELISA.

Data set [9] relates to Human and murine cancer cell lines and human normal cells. The experiment in a line: Cytotoxicity (MTT assay) in cancer cell lines and normal cells. It is filed as cell-based. The note with it: transfected 0.8 mg/ml, 72 h after treatment, FIG. 2. The method, then:
Human and murine cancer cell lines and human normal cells in 96-well plate (7000 cells/well) were transfected with RIG-I agonist 5′ppp ssRNA ICR4 ([…]). Cells were harvested 72 h after treatment and analyzed for cytotoxicity using MTT assay. N=3. *, P<0.05.

The test system of data set [10] is mouse pancreatic, adenocarcinoma, and sarcoma cells. As to the kind of experiment: Antitumor activities in mouse pancreatic cancer and sarcoma cells (overall statements). In kind it is cell-based. The note with it: FIGS. 4A-4C. The method, then: The antitumor effects of RigantmiR-21 are not limited to melanoma cells. KPC-4839 (mouse pancreatic ductal adenocarcinoma), PANC-02 (mouse pancreatic adenocarcinoma) and mouse sarcoma cell line cells were transfected with indicated ICR4, RigantmiR-21, mutant RigantmiR-21, or anti-miR-21 (0.6 μg/ml) using DharmaFECT (DF). After overnight incubation, IFN-β production by these cells was determined using ELSIA. (n=3). As shown in FIGS. 4A-4C, RigantmiR-21 treatments induced cell death and IFN-β production by mouse pancreatic, adenocarcinoma, and sarcoma cells that are also resistant to RIG-I agonist ICR4.

Data set [11] deals with 4T1 mouse breast cancer cells, B16-F10 mouse melanoma cells, 403688 mouse sarcoma cells, and WM266.4 human melanoma cells. The experiment in a line: IFN-β production (ELISA) by different cancer cells after first and second transfection with RIG-I agonists. The note with it: DharmaFECT, one day after first and second transfection; FIG. 11. In kind it is cell-based. The method, then: 4T1 mouse breast cancer cells, B16-F10 mouse melanoma cells, 403688 mouse sarcoma cells, and WM266.4 human melanoma cells were transfected with indicated RIG-I agonists using liposomal transfection agent DharmaFECT (DF). After overnight incubation, the cells was replenished with fresh culture media, followed by another transfection with the same RIG-I agonists. One day after first and second transfection IFN-β production by these cells were determined using ELSIA.

“Also recorded” adds a separate entry of the source. {PPP} = triphosphate

As to `Cn1cc(C[C@H](N)C(=O)O)c2ccccc21` [1-MT, 1-methyl tryptophan], the “IFN-β production, cells pre-treated with mixture of 1-MT and CH223191 versus DMSO” value in data set [1], in [2] and in data set [3] was “significantly increased” in each case.
`Nc1nc2c(ncn2[C@@H]2O[C@@H]3COP(=O)(O)O[C@H]4[C@@H](O)[C@H](n5cnc6c(N)ncnc65)O[C@@H]4COP(=O)(O)O[C@@H]2[C@@H]3O)c(=O)[nH]1` [2′3′-cGAMP]: in [4], the “IFN-β production after secondary treatment, cells pretreated with the substance versus control” value was “significantly decreased”.
For `Cc1ccccc1N=Nc1ccc(NC(=O)c2ccnn2C)c(C)c1` [CH223191], the “IFN-β production, cells pre-treated with mixture of 1-MT and CH223191 versus DMSO” value in data set [1], in data set [2] and in data set [3] was “significantly increased” throughout.
For the molecule `Nc1ccccc1C(=O)CC(N)C(=O)O` (stereo not shown) [Kyn, kynurenine], the “IFN-β production after secondary treatment, cells pretreated with the substance versus control” value in [1] and in data set [2] was “significantly decreased” throughout.
Turning to “ICR2-anti-miR-21: RIG-I agonist ICR2 conjugated with anti-miR-21; SEQ ID NO: 7 (GGAUGCGGUACCUGACAGCAUCCUCAACAUCAGUCUGAUAAGCUA; listed as RNA, further chemistry not given here)”, the “IFN-β production compared to ICR2 and ICR2AS conjugated with seed mutant anti-miR-21” value in data set [5] is on record as “increased induction”.
Same read-out and setting: the entry for “ICR2AS-anti-miR-21: RIG-I agonist ICR2AS conjugated with anti-miR-21; SEQ ID NO: 9 (GGAUGCUGUCAGGUACCGCAUCCUCAACAUCAGUCUGAUAAGCUA; listed as RNA, further chemistry not given here)” is “increased induction”.
Regarding “ICR4: immunogenic cell-killing RNA RIG-I agonist, 5′ppp-containing double stem-loop ssRNA; SEQ ID NO: 1 (GGAUGCGGUACCUGACAGCAUCCUAAACUCAUGGUCCAUGUUUGUCCAUGGACCA; RNA, 5' {PPP}, backbone not given here; double stem-loop single-stranded RNA) [reference compound]”, in data set [6] (0.6 μg/ml, overnight, FIGS. 1A and 1B), the “sensitivity to antitumor effects, B16-F0 cell line compared with B16-F10 cell line” value is recorded as “much more sensitive”. The “cytotoxicity (cell death)” value was “underwent cell death and IFN-β production” in data set [6] (ICR4-liposome complex 0.6 μg/ml, overnight incubation, MTT assay); “underwent cell death and IFN-β production” in data set [7]. The “cytotoxic effects after repeated treatments” value in data set [6] is reported as “gradually augmented”. The “IFN-β production after first and second transfection” value in [8] was “significantly reduced and not”. The IFN-β production entry is “underwent cell death and IFN-β production” in data set [8] (ICR4-liposome complex 0.6 μg/ml, overnight incubation); “underwent cell death and IFN-β production” in data set [5] (ICR4-liposome complex 0.6 μg/ml, overnight incubation, ELISA). For the same molecule, the “% cytotoxicity, cancer versus normal cells” value in [9] was “differentially sensitive; also recorded: Differential sensitivity”. Besides, the “response of the cells to the RIG-I agonist (resistance)” value in data set [10] was “resistant”. Besides, the “IFN-β production after secondary treatment, cells pretreated with the substance versus control” value in [4] is recorded as “significantly decreased”.
lipopolysaccharide [LPS]: in data set [3], the “IFN-β production after secondary treatment, cells pretreated with the substance versus control” value is reported as “significantly decreased”.

B1: RigantmiR-146a: nucleic acid molecule comprising a RIG-I agonist sequence and a miR-146a antagonist sequence; SEQ ID NO: 4 (nucleic acid)
chain: GGAUGCGGUACCUGACAGCAUCCUCCCCCGCAUUCCAUGGUCAACCCAUGGAAUUCAGUUCUCA
modifications: listed as RNA, chemistry not given here
For the molecule B1, the “IFN-β production by different cancer cells” value in data set [11] is given as “differentially induce”.

B2: high mobility group box 1 (protein, UniProt P09429 1-215, looked up)
High mobility group protein B1: MGKGDPKKPRGKMSSYAFFVQTCREEHKKKHPDASVNFSEFSKKCSERWKTMSAKEKGKFEDMAKADKARYEREMKTYIPPKGETKKKFKDPNAPKRPPSAFFLFCSEYRPKIKGEHPGLSIGDVAKKLGEMWNNTAADDKQPYEKKAAKLKEKYEKDIAAYRAKGKPDAAKKGVVKAEKSKKKKEEEEDEEDEEDEEEEEDEEDEDEEEDDDDE
notes: TLR4 agonist protein
As to B2, the “IFN-β production after secondary treatment, cells pretreated with the substance versus control” value in [1], in data set [2] and in [3] was “significantly decreased” throughout.

B3: mutant RigantmiR-21: composed of ICR4 and a non-complementary sequence to miR-21; SEQ ID NO: 3 (nucleic acid)
chain: GGAUGCGGUACCUGACAGCAUCUUGAAAUAAGGACUGAUGCUCAACAUCAGUCUGACACUCCA
modifications: chemistry not fully specified
As for B3, the “cytotoxic effects after repeated treatments” value in data set [6] is on record as “gradually augmented”. In [8], the “IFN-β production after first and second transfection” value is given as “significantly reduced”.

Source of the values: patent US20220168331A1, “PRR-Activating and MicroRNA-Inhibiting Molecules and Methods of Using Same” (Duke University, priority 2019, published 2022).
